Measurements as given in US20230085307A1, “PYRIDAZINONE COMPOUND AND HERBICIDE” (NISSAN CHEMICAL CORPORATION, priority 2019, published 2023).

What was measured:
Italian ryegrass [1] = assay: Test Example 4: herbicidal effect by soil treatment (Table 19, symbol K); type: in vivo, Italian ryegrass (Lolium multiflorum)
Summary of the method: (§1)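 Step 1: sow seeds in sterilized diluvial soil, cover ~1.5 cm. Step 2: spray diluted emulsion onto soil surface at predetermined rate. Step 3: greenhouse, 25–30° C, three weeks. Step 4: grade effect on each plant by earlier criteria.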

lambsquarters [2] = assay: Test Example 4: herbicidal effect by soil treatment (Table 19, symbol O); type: in vivo, lambsquarters (Chenopodium album)
Summary of the method: as §1

Japanese bulrush = assay: Test Example 1: herbicidal activity, application before weed generation under submerged conditions (Table 16, symbol B); type: in vivo, Japanese bulrush (Schoenoplectus juncoides); conditions: 320 g/ha applied herbicide
Summary of the method: (§2)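 Submerged Wagner pots (alluvial soil, 4 cm water) sown with weed seeds and planted with 2.5-leaf rice seedlings; emulsifiable concentrate diluted in water applied to water surface on sowing day. Held in greenhouse at 25-30 °C; injury scored 0-5 by herbicidal rate after three weeks.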

oval-leafed pondweed = assay: Test Example 1: herbicidal activity, application before weed generation under submerged conditions (Table 16, symbol C); type: in vivo, oval-leafed pondweed (Monochoria vaginalis); conditions: 320 g/ha applied herbicide
Summary of the method: as §2

velvetleaf = assay: Test Example 5: herbicidal effect by foliage application, plastic box (Table 20, symbol M); type: in vivo, velvetleaf (Abutilon theophrasti); conditions: foliage application; for effect on velvetleaf (M): 3 weeks after application
Summary of the method: (§3)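 Foliar spray test: emulsion formulation diluted in water to a set application rate, sprayed onto 14-day-old plants raised in diluvial soil at 25° C to 30° C under glass. Both herbicidal effect and crop effect rated visually three weeks later.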

blackgrass = assay: Test Example 5: herbicidal effect by foliage application, plastic box (Table 20, symbol J); type: in vivo, blackgrass (Alopecurus myosuroides); conditions: foliage application; for effect on blackgrass (J): 3 weeks after application
Summary of the method: as §3

chickweed = assay: Test Example 4: herbicidal effect by soil treatment (Table 19, symbol P); type: in vivo, common chickweed (Stellaria media)
Summary of the method: as §1

southern crabgrass = assay: Test Example 5: herbicidal effect by foliage application, plastic box (Table 20, symbol F); type: in vivo, southern crabgrass (Digitaria ciliaris); conditions: foliage application; for effect on southern crabgrass (F): 3 weeks after application
Summary of the method: as §3

Italian ryegrass [3] = assay: Test Example 5: herbicidal effect by foliage application, plastic box (Table 20, symbol K); type: in vivo, Italian ryegrass (Lolium multiflorum); conditions: foliage application; for effect on Italian ryegrass (K): 3 weeks after application
Summary of the method: as §3

Chinese sprangletop = assay: Test Example 3: herbicidal effect by foliage application, Wagner pot (Table 18, symbol D); type: in vivo, chinese sprangletop (Leptochloa chinensis); conditions: for herbicidal effect on D (Chinese sprangletop), rating 0-5: 320 g/ha
Summary of the method: (§4)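 Plants were sown in alluvial soil held under 0.1–0.5 cm standing water and grown 14 days in a greenhouse at 25–30 °C. An emulsifiable formulation, water-diluted to the set dose, was then sprayed onto the foliage, and effects were scored three weeks later using previously defined criteria.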

late watergrass = assay: Test Example 1: herbicidal activity, application before weed generation under submerged conditions (Table 16, symbol A); type: in vivo, late watergrass (Echinochloa oryzicola); conditions: 320 g/ha applied herbicide
Summary of the method: as §2

lambsquarters [4] = assay: Test Example 5: herbicidal effect by foliage application, plastic box (Table 20, symbol O); type: in vivo, lambsquarters (Chenopodium album); conditions: foliage application; for effect on lambsquarters (O): 3 weeks after application
Summary of the method: as §3

wild oat = assay: Test Example 5: herbicidal effect by foliage application, plastic box (Table 20, symbol I); type: in vivo, wild oat (Avena fatua); conditions: foliage application; for effect on wild oat (I): 3 weeks after application
Summary of the method: as §3

barnyard grass = assay: Test Example 3: herbicidal effect by foliage application, Wagner pot (Table 18, symbol H); type: in vivo, barnyard grass (Echinochloa crus-galli); conditions: for herbicidal effect on H (barnyard grass), rating 0-5: 320 g/ha
Summary of the method: as §4

windgrass = assay: Test Example 4: herbicidal effect by soil treatment (Table 19, symbol L); type: in vivo, windgrass (Apera spica-venti)
Summary of the method: as §1

green foxtail = assay: Test Example 5: herbicidal effect by foliage application, plastic box (Table 20, symbol G); type: in vivo, green foxtail (Setaria viridis); conditions: foliage application; for effect on green foxtail (G): 3 weeks after application
Summary of the method: as §3

rice flat sedge = assay: Test Example 3: herbicidal effect by foliage application, Wagner pot (Table 18, symbol E); type: in vivo, rice flat sedge (Cyperus iria); conditions: for herbicidal effect on E (rice flat sedge), rating 0-5: 320 g/ha
Summary of the method: as §4

[5] = amount of applied herbicide 320 g/ha
[6] = 320 g/ha, three weeks after application
[7] = AAH 320 g/ha, evaluated three weeks after application

SMILES | Herbicidal effect on B: Japanese bulrush (grade 0-5) (Japanese bulrush) | Herbicidal effect on C: oval-leafed pondweed (grade 0-5) (oval-leafed pondweed) | herbicidal effect on D (Chinese sprangletop), rating 0-5 (Chinese sprangletop) | Herbicidal effect on A: late watergrass (grade 0-5) (late watergrass) | herbicidal effect on H (barnyard grass), rating 0-5 (barnyard grass) | herbicidal effect on E (rice flat sedge), rating 0-5 (rice flat sedge) | effect on velvetleaf (M) (velvetleaf; 320 g/ha) | effect on blackgrass (J) (blackgrass; 320 g/ha) | effect on southern crabgrass (F) (southern crabgrass; 320 g/ha) | effect on Italian ryegrass (K) (Italian ryegrass [3]; 320 g/ha) | effect on lambsquarters (O) (lambsquarters [4]; 320 g/ha) | effect on wild oat (I) (wild oat; 320 g/ha) | effect on green foxtail (G) (green foxtail; 320 g/ha) | other results
CCCCOc1ccc(-c2sc3ccccc3c2-c2c(O)c(C)nn(C)c2=O)cc1 [1-024] | 5 (Herbicidal rate of 90% or more (almost completely withered)) | 5 (Herbicidal rate of 90% or more (almost completely withered)) | 4 (Herbicidal rate of 70% or more and less than 90%) | 5 (Herbicidal rate of 90% or more (almost completely withered)) | 5 (Herbicidal rate of 90% or more (almost completely withered)) | 5 (Herbicidal rate of 90% or more (almost completely withered)) |  |  |  |  |  |  |  | herbicidal effect rating, K: Italian ryegrass (Italian ryegrass [1]; [5]): 0 (Herbicidal rate of 5% or less (almost no effect)); herbicidal effect rating, O: lambsquarters (lambsquarters [2]; [5]): 5 (Herbicidal rate of 90% or more (almost completely withered)); herbicidal effect grade, M: velvetleaf (velvetleaf; [6]): 5 (Herbicidal rate of 90% or more (almost completely withered)); herbicidal effect grade, J: blackgrass (blackgrass; [6]): 4 (Herbicidal rate of 70% or more and less than 90%); herbicidal effect rating, P: chickweed (chickweed; [5]): 4 (Herbicidal rate of 70% or more and less than 90%); herbicidal effect grade, F: southern crabgrass (southern crabgrass; [6]): 5 (Herbicidal rate of 90% or more (almost completely withered)); herbicidal effect grade, K: Italian ryegrass (Italian ryegrass [3]; [6]): 4 (Herbicidal rate of 70% or more and less than 90%); herbicidal effect grade, O: lambsquarters (lambsquarters [4]; [6]): 5 (Herbicidal rate of 90% or more (almost completely withered)); herbicidal effect grade, I: wild oat (wild oat; [6]): 4 (Herbicidal rate of 70% or more and less than 90%); herbicidal effect rating, L: windgrass (windgrass; [5]): 0 (Herbicidal rate of 5% or less (almost no effect)); herbicidal effect grade, G: green foxtail (green foxtail; [6]): 5 (Herbicidal rate of 90% or more (almost completely withered))
COCCOCOc1c(C)nn(C)c(=O)c1-c1c(-c2ccc(OCCC3OCCO3)cc2)sc2ccccc12 [1-224] | 5 (Herbicidal rate of 90% or more (almost completely withered)) | 3 (Herbicidal rate of 40% or more and less than 70%) | 3 (Herbicidal rate of 40% or more and less than 70%) | 5 (Herbicidal rate of 90% or more (almost completely withered)) | 5 (Herbicidal rate of 90% or more (almost completely withered)) | 5 (Herbicidal rate of 90% or more (almost completely withered)) | 5 (Herbicidal rate of 90% or more (almost completely withered)) | 0 (Herbicidal rate of 5% or less (almost no effect)) | 3 (Herbicidal rate of 40% or more and less than 70%) | 0 (Herbicidal rate of 5% or less (almost no effect)) | 4 (Herbicidal rate of 70% or more and less than 90%) | 0 (Herbicidal rate of 5% or less (almost no effect)) | 5 (Herbicidal rate of 90% or more (almost completely withered)) | K: Italian ryegrass, herbicidal effect rating (Italian ryegrass [1]; AAH 320 g/ha): 0 (Herbicidal rate of 5% or less (almost no effect)); O: lambsquarters, herbicidal effect rating (lambsquarters [2]; AAH 320 g/ha): 3 (Herbicidal rate of 40% or more and less than 70%); P: chickweed, herbicidal effect rating (chickweed; AAH 320 g/ha): 0 (Herbicidal rate of 5% or less (almost no effect)); L: windgrass, herbicidal effect rating (windgrass; AAH 320 g/ha): 0 (Herbicidal rate of 5% or less (almost no effect))
Cc1nn(C)c(=O)c(-c2c(-c3ccc(Cl)cc3)sc3ccc(F)cc23)c1O [Compound No. 2-010, 4-(2-(4-chlorophenyl)-5-fluorobenzo[b]thiophen-3-yl)-5-hydroxy-2,6-dimethylpyridazin-3(2H)-one] | 3 (Herbicidal rate of 40% or more and less than 70%) | 1 (Herbicidal rate of 5% or more and less than 20%) | 4 (Herbicidal rate of 70% or more and less than 90%) | 3 (Herbicidal rate of 40% or more and less than 70%) | 5 (Herbicidal rate of 90% or more (almost completely withered)) | 5 (Herbicidal rate of 90% or more (almost completely withered)) | 5 (Herbicidal rate of 90% or more (almost completely withered)) | 3 (Herbicidal rate of 40% or more and less than 70%) | 5 (Herbicidal rate of 90% or more (almost completely withered)) | 5 (Herbicidal rate of 90% or more (almost completely withered)) | 5 (Herbicidal rate of 90% or more (almost completely withered)) | 4 (Herbicidal rate of 70% or more and less than 90%) | 5 (Herbicidal rate of 90% or more (almost completely withered)) | herbicidal effect rating, K: Italian ryegrass (Italian ryegrass [1]; 320 g/ha): 5 (Herbicidal rate of 90% or more (almost completely withered)); herbicidal effect rating, O: lambsquarters (lambsquarters [2]; 320 g/ha): 5 (Herbicidal rate of 90% or more (almost completely withered)); herbicidal effect rating, P: chickweed (chickweed; 320 g/ha): 4 (Herbicidal rate of 70% or more and less than 90%); herbicidal effect rating, L: windgrass (windgrass; 320 g/ha): 0 (Herbicidal rate of 5% or less (almost no effect))
C#CCSCc1ccc(-c2sc3ccc(F)cc3c2-c2c(O)c(C)nn(C)c2=O)cc1 [2-325] | 2 (Herbicidal rate of 20% or more and less than 40%) | 0 (Herbicidal rate of 5% or less (almost no effect)) |  | 3 (Herbicidal rate of 40% or more and less than 70%) |  |  |  |  |  |  |  |  |  | herbicidal effect on K: Italian ryegrass (Italian ryegrass [1]; [5]): 4 (Herbicidal rate of 70% or more and less than 90%); herbicidal effect on O: lambsquarters (lambsquarters [2]; [5]): 4 (Herbicidal rate of 70% or more and less than 90%); M: velvetleaf, herbicidal effect (criteria 0-5) (velvetleaf; [7]): 5 (Herbicidal rate of 90% or more (almost completely withered)); J: blackgrass, herbicidal effect (criteria 0-5) (blackgrass; [7]): 4 (Herbicidal rate of 70% or more and less than 90%); herbicidal effect on P: chickweed (chickweed; [5]): 0 (Herbicidal rate of 5% or less (almost no effect)); F: southern crabgrass, herbicidal effect (criteria 0-5) (southern crabgrass; [7]): 5 (Herbicidal rate of 90% or more (almost completely withered)); K: Italian ryegrass, herbicidal effect (criteria 0-5) (Italian ryegrass [3]; [7]): 4 (Herbicidal rate of 70% or more and less than 90%); herbicidal effect on D: Chinese sprangletop (Chinese sprangletop; [5]): 3 (Herbicidal rate of 40% or more and less than 70%); O: lambsquarters, herbicidal effect (criteria 0-5) (lambsquarters [4]; [7]): 5 (Herbicidal rate of 90% or more (almost completely withered)); I: wild oat, herbicidal effect (criteria 0-5) (wild oat; [7]): 4 (Herbicidal rate of 70% or more and less than 90%); herbicidal effect on H: barnyard grass (barnyard grass; [5]): 5 (Herbicidal rate of 90% or more (almost completely withered)); herbicidal effect on L: windgrass (windgrass; [5]): 0 (Herbicidal rate of 5% or less (almost no effect)); G: green foxtail, herbicidal effect (criteria 0-5) (green foxtail; [7]): 5 (Herbicidal rate of 90% or more (almost completely withered)); herbicidal effect on E: rice flat sedge (rice flat sedge; [5]): 5 (Herbicidal rate of 90% or more (almost completely withered))
